Experimental data published in US5880258A (dated 1999).
*1 amine or outer side, *2 acyl side, *3 side chain or, on linkers, in order; H or OH if unused. Where a SMILES comes first, the peptide text is derived from it. Where no end group is shown, it is not given here. [ ]: non-standard residue; d: D form. The star is where a group is joined. sY = N[C@@H](Cc1ccc(OS(=O)(=O)O)cc1)C(=O)O; X2 = CC(C)C[C@H](N*)C(=O)NP(=O)(O)O; Asu = N[C@@H](CCCCCC(=O)O)C(=O)O; dAsu = N[C@H](CCCCCC(=O)O)C(=O)O; NH(3-hydroxypropyl) = OCCCN*; Suc = O=C(CCC(=O)[*:2])[*:1]; Leu(ol) = CC(C)C[C@H](N)CO; Ava = NCCCCC(=O)O; βAla = NCCC(=O)O

How the values were obtained:
thrombin [1] = target: T1, thrombin (Homo sapiens, UniProt P00734); experiment: anti-thrombin activity; clotting assay (coagulation time with fibrinogen as substrate); format: biochemical; set-up: 100 μl of human-thrombin prepared at 10 NIH units/ml in aforesaid buffer; conditions: for Potency: calculated using the definition that HV-1 (54-65) potency is 1; for IC50: concentration corresponding to 50 thrombin units, human-thrombin 10 NIH units/ml, human-fibrinogen 6 mg/ml, read-out: 50% Inhibition Concentration (converted)
Method: Measurement of anti-thrombin activity was done by looking at anti-coagulant activity as an index using fibrinogen as the substrate. That is, the compounds were dossolved in 200 μl of 0.1 mM Tris-HCl buffer (pH7.5) containing 0.1% polyethyleneglycol-6000, 100 μl of human-thrombin prepared at 10 NIH units/ml in aforesaid buffer, were added 200 μl of human-fibrinogen (Sigma) prepared at 6 mg/ml in aforesaid tris-hydrochloride buffer were added, and the coagulation time of the reaction mixtures were measured. For measuring of coagulation times, coagulation time analyzer (Amelung KC10A) was used. Obtained values were converted into units by using a previously prepared thrombin standard curve. Graphs were prepared by plotting the converted values on the vertical axis, and the concentrations of the compounds on the horizontal axis. In the graphs, the thrombin unit was defined as 100 at a compound concentration of 0. The concentration of compounds corresponding to 50 units were defined as 50% inhibitory concentrations of compounds.

thrombin [2] = target: T1, thrombin; experiment: anti-thrombin activity; chromogenic assay (Chromozym TH hydrolysis, apparent dissociation constant Ki'); format: biochemical; set-up: 100 μl of human-thrombin prepared at 10 NIH units/ml in aforesaid buffer; conditions: for Ki: apparent dissociation constant, 350 pM human-thrombin, 100 μM Chromozym TH, 37° C.; for Potency: relative to hirudin HV-1 = 1
Method: Anti-thrombin activities were measured by measuring the degree of inhibition of thrombin's hydrolytic activity on synthetic substrate Chromozym TH (Tocylglycil-prolylarginine-4-nitroanilideacetate). This reaction was carried out as follows. […] Here, the molar concentration of aforementioned human-thrombin was determined by the method of active site titration [G. W. Jameson et al., Biochem. J., 131, p107-117 (1973)] using 4-methylunberifenyl-p-guanidinobenzoate as substrate. After the pre-incubation, Chromozym TH (product of Boehringer-Mannheim) was added to a final concentration of 100 μM, and released p-nitroanilide was measured at the wave length of 405 nm, and the initial velocity of the hydrolytic reactions were measured for each of the abovementioned hirudins at various concentrations. From this initial velocity of the hydrolytic reactions, the apparent dissociation constants Ki' were calculated by the method of S. R. Stone et al. [Biochemistry, 25, p4622-4628 (1986)].

| Compound | Potency (thrombin [1]) | IC50 (thrombin [1]) [µM] | Ki (thrombin [2]) [pM] | Potency (thrombin [2]) |
| --- | --- | --- | --- | --- |
| CC[C@H](C)[C@H](NC(=O)[C@@H]1CCCN1C(=O)[C@H](CCC(=O)O)NC(=O)CCC(=O)O)C(=O)N1CCC[C@H]1C(=O)N[C@@H](CCC(=O)O)C(=O)N[C@@H](Cc1ccc(OS(=O)(=O)O)cc1)C(=O)N[C@@H](Cc1ccc(OS(=O)(=O)O)cc1)C(=O)N[C@@H](CC(C)C)C(=O)N[C@@H](CCC(N)=O)C(=O)O [Sulfated form of (H), Suc--Glu--Pro--Ile--Pro--Glu--Tyr(SO3 H)--Tyr(SO3 H)--Leu--Gln--OH] (Suc-EPIPE[sY][sY]LQ-OH) | < 0.05 | > 142 | – | – |
| CC[C@H](C)[C@H](NC(=O)[C@@H]1CCCN1C(=O)[C@H](CCC(=O)O)NC(=O)[C@H](Cc1ccccc1)NC(=O)CCC(=O)O)C(=O)N1CCC[C@H]1C(=O)N[C@@H](CCC(=O)O)C(=O)N[C@@H](Cc1ccc(O)cc1)C(=O)N[C@@H](Cc1ccc(O)cc1)C(=O)NCCCO [(N)] (Suc-FEPIPEYY-{NH(3-hydroxypropyl)}) | – | 84.9 | – | – |
| CC[C@H](C)[C@H](NC(=O)[C@H](CCC(=O)O)NC(=O)[C@H](CCC(=O)O)NC(=O)[C@H](Cc1ccccc1)NC(=O)[C@H](CC(=O)O)NC(=O)CN)C(=O)N1CCC[C@H]1C(=O)N[C@@H](Cc1ccc(O)cc1)C(=O)N[C@@H](Cc1ccc(OS(=O)(=O)O)cc1)C(=O)N[C@@H](Cc1ccc(O)cc1)C(=O)N[C@@H](CC(C)C)C(=O)N[C@@H](CCC(N)=O)C(=O)O (single isomer, unassigned) [Sulfated form of (B) peak 2, Gly--Asp--Phe--Glu--Glu--Ile--Pro--Tyr--Tyr(SO3 H)--Tyr--Leu--Gln] | – | 0.63 | – | – |
| Val--Val--Tyr--Thr--Asp--Cys--Thr--Glu--Ser--Gly--Gln--Asn--Leu--Cys--Leu--Cys--Glu--Gly--Ser--Asn--Val--Cys--Gly--Gln--Gly--Asn--Lys--Cys--Ile--Leu--Gly--Ser--Asp--Gly--Glu--Lys--Asn--Gln--Cys--Val--Thr--Gly--Glu--Gly--Thr--Pro--Lys--Pro--Gln--Ser--His--Asn--Asp--Gly--Asp--Phe--Glu--Glu--Ile--Pro--Tyr--Tyr(SO3 H)--Tyr(SO3 H)--Leu--Gln [Sulfated form of hirudin HV-17 peak 1] | – | – | 2.8 | 2.3 |
| CC[C@H](C)[C@H](NC(=O)[C@@H]1CCCN1C(=O)[C@H](CCC(=O)O)NC(=O)[C@H](Cc1ccccc1)NC(=O)CCC(=O)O)C(=O)N1CCC[C@H]1C(=O)N[C@@H](CCC(=O)O)C(=O)N[C@@H](Cc1ccc(O)cc1)C(=O)N[C@@H](Cc1ccc(O)cc1)C(=O)N[C@H](CO)CC(C)C [(P)] (Suc-FEPIPEYY[Leu(ol)]) | – | 82.7 | – | – |
| CC[C@H](C)[C@H](NC(=O)[C@@H]1CCCN1C(=O)[C@H](CCC(=O)O)NC(=O)[C@H](Cc1ccccc1)NC(=O)CCC(=O)O)C(=O)N1CCC[C@H]1C(=O)N[C@@H](CCC(=O)O)C(=O)N[C@@H](Cc1ccc(OS(=O)(=O)O)cc1)C(=O)N[C@@H](Cc1ccc(OS(=O)(=O)O)cc1)C(=O)O [Sulfated form of (I), Suc--Phe--Glu--Pro--Ile--Pro--Glu--Tyr(SO3 H)--Tyr(SO3 H)--OH] (Suc-FEPIPE[sY][sY]-OH) | 1.62 | 3.1 | – | – |
| GDFEEIPYYYLQ [(B)] | – | 9 | – | – |
| CC[C@H](C)[C@H](NC(=O)[C@@H]1CCCN1C(=O)[C@H](CCC(=O)O)NC(=O)[C@H](Cc1ccccc1)NC(=O)CCC(=O)O)C(=O)N1CCC[C@H]1C(=O)N[C@@H](CCC(=O)O)C(=O)N[C@@H](Cc1ccc(O)cc1)C(=O)N[C@@H](Cc1ccc(O)cc1)C(=O)N[C@@H](CC(C)C)C(=O)NP(=O)(O)O [(Y)] (Suc-FEPIPEYY-X2) | – | 114 | – | – |
| CCNC(=O)[C@H](CC(C)C)NC(=O)[C@H](Cc1ccc(O)cc1)NC(=O)[C@H](Cc1ccc(O)cc1)NC(=O)[C@H](CCC(=O)O)NC(=O)[C@@H]1CCCN1C(=O)[C@@H](NC(=O)[C@@H]1CCCN1C(=O)[C@H](CCC(=O)O)NC(=O)[C@H](Cc1ccccc1)NC(=O)CCC(=O)O)[C@@H](C)CC [(R)] (Suc-FEPIPEYYL-NHEt) | 0.18 | 27.8 | – | – |
| CC[C@H](C)[C@H](NC(=O)[C@@H]1CCCN1C(=O)[C@H](CCC(=O)O)NC(=O)[C@H](Cc1ccccc1)NC(=O)CCC(=O)O)C(=O)N1CCC[C@H]1C(=O)N[C@@H](CCC(=O)O)C(=O)N[C@@H](Cc1ccc(O)cc1)C(=O)N[C@@H](Cc1ccc(O)cc1)C(=O)O [(I)] (Suc-FEPIPEYY-OH) | 0.83 | 17.3 | – | – |
| CC[C@H](C)[C@H](NC(=O)[C@@H]1CCCN1C(=O)[C@H](CCC(=O)O)NC(=O)[C@H](Cc1ccccc1)NC(=O)CCC(=O)O)C(=O)N1CCC[C@H]1C(=O)N[C@@H](CCC(=O)O)C(=O)N[C@@H](Cc1ccc(O)cc1)C(=O)N[C@@H](Cc1ccc(O)cc1)C(=O)NCCC(=O)O [(K)] (Suc-FEPIPEYY[βAla]-OH) | – | 24.6 | – | – |
| GDFEEIPEYYLQ [(A)] | – | 9.78 | – | – |
| CC[C@H](C)[C@H](NC(=O)[C@@H]1CCCN1C(=O)[C@H](CCC(=O)O)NC(=O)[C@H](Cc1ccccc1)NC(=O)CCC(=O)O)C(=O)N1CCC[C@H]1C(=O)N[C@@H](CCC(=O)O)C(=O)N[C@@H](Cc1ccc(O)cc1)C(=O)N[C@@H](Cc1ccc(O)cc1)C(=O)N[C@@H](CC(C)C)C(=O)N[C@H](CCCCCC(N)=O)C(N)=O [(W)] (Suc-FEPIPEYYL[dAsu](NH2)-NH2) | – | 24.3 | – | – |
| Val--Val--Tyr--Thr--Asp--Cys--Thr--Glu--Ser--Gly--Gln--Asn--Leu--Cys--Leu--Cys--Glu--Gly--Ser--Asn--Val--Cys--Gly--Gln--Gly--Asn--Lys--Cys--Ile--Leu--Gly--Ser--Asp--Gly--Glu--Lys--Asn--Gln--Cys--Val--Thr--Gly--Glu--Gly--Thr--Pro--Lys--Pro--Gln--Ser--His--Asn--Asp--Gly--Asp--Phe--Glu--Glu--Ile--Pro--Tyr--Tyr--Tyr(SO3 H)--Leu--Gln [Sulfated form of hirudin HV-17 peak 2] | – | – | 4.3 | 1.5 |
| CC[C@H](C)[C@H](NC(=O)[C@@H]1CCCN1C(=O)[C@H](CCC(=O)O)NC(=O)[C@H](Cc1ccccc1)NC(=O)CCC(=O)O)C(=O)N1CCC[C@H]1C(=O)N[C@@H](CCC(=O)O)C(=O)N[C@@H](Cc1ccc(O)cc1)C(=O)N[C@@H](Cc1ccc(O)cc1)C(=O)N[C@@H](CC(C)C)C(=O)N[C@@H](CCCCCC(=O)OC)C(=O)OC [(V)] (Suc-FEPIPEYYL[Asu](OMe)-OMe) | – | 20.7 | – | – |
| CC[C@H](C)[C@H](NC(=O)[C@@H]1CCCN1C(=O)[C@H](CCC(=O)O)NC(=O)[C@H](Cc1ccccc1)NC(=O)CCC(=O)O)C(=O)N1CCC[C@H]1C(=O)N[C@@H](CCC(=O)O)C(=O)N[C@@H](Cc1ccc(OS(=O)(=O)O)cc1)C(=O)N[C@@H](Cc1ccc(OS(=O)(=O)O)cc1)C(=O)NCCCCC(=O)O [Sulfated form of (L), Suc--Phe--Glu--Pro--Ile--Pro--Glu--Tyr(SO3 H)--Tyr(SO3 H)--NH(CH2)4 COOH] (Suc-FEPIPE[sY][sY][Ava]-OH) | – | 2.22 | – | – |
| Val--Val--Tyr--Thr--Asp--Cys--Thr--Glu--Ser--Gly--Gln--Asn--Leu--Cys--Leu--Cys--Glu--Gly--Ser--Asn--Val--Cys--Gly--Gln--Gly--Asn--Lys--Cys--Ile--Leu--Gly--Ser--Asp--Gly--Glu--Lys--Asn--Gln--Cys--Val--Thr--Gly--Glu--Gly--Thr--Pro--Lys--Pro--Gln--Ser--His--Asn--Asp--Gly--Asp--Phe--Glu--Glu--Ile--Pro--Tyr--Tyr(SO3 H)--Tyr--Leu--Gln [Sulfated form of hirudin HV-17 peak 3] | – | – | 5.9 | 1.1 |
